A word on the inhibition: it is how much of the control response was suppressed. A low value points to a response near the control. Broadly, the melting point is the temperature of the solid-liquid transition. For orientation: IC50 means the concentration needed to halve the response being measured. Low values mean inhibition by little substance, high ones a need for much substance.

Results on 37 molecules are retold here after PMC10648204, “Discovery of Novel Biphenyl Carboxylic Acid Derivatives as Potent URAT1 Inhibitors” (Molecules, 2023).

Each structure is given as a SMILES string.

For one data set, the target named is T1, human URAT1 (Homo sapiens, UniProt Q96S37).
T1 construct: expressed in transfected cells; host or cells: HEK293T cells (ATCC CRL-11268)
T1 sequence (Q96S37 1-553): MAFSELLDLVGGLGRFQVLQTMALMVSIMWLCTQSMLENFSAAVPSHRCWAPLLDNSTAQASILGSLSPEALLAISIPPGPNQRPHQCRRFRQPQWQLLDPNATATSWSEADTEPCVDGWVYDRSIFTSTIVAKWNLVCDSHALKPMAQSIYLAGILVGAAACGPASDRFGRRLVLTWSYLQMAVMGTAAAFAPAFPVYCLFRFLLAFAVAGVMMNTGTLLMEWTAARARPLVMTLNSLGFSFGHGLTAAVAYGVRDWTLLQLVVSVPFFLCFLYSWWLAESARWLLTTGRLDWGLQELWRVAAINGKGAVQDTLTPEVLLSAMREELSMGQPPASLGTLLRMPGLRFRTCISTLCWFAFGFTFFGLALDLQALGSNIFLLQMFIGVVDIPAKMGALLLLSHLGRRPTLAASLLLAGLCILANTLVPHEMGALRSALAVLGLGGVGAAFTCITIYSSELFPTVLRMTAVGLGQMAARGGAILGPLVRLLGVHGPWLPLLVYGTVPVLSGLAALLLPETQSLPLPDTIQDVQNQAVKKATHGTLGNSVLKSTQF
The data set is described as follows: In vitro URAT1 inhibitory assay (14C-uric acid uptake in HEK293T cells expressing human URAT1). It counts as cell-based. The following applies: HEK293-URAT1 cells, 14C-labeled uric acid substrate; for inhibition at 10 µM: HEK-293T, 10 μM compound, mean of three measurements. The protocol:
All the target compounds were evaluated for their URAT1 inhibitory activities in HEK293-URAT1 cells using ^14C-labeled uric acid as the substrate. […] The SAR exploration on series A compounds mainly focused on the hydrophobic component. […] For series B compounds, the ortho-substituted biphenyl carboxylic acid was initially kept, and various aromatic components were incorporated (B1–B25). […] Different substituents were introduced onto the 4-pyridyl (B15–B21).
In Vitro URAT1 Inhibitory Assay. A transient expression system of human URAT1 in HEK293T cells was constructed to measure ^14C-uric acid transport. […] The cell cryovials were removed from liquid nitrogen storage, and immediately placed on dry ice prior to thawing. […] The cell suspension was transferred into a 15 mL centrifuge tube, and 10 mL complete medium (DMEM +10% FBS +500 μg/mL G418 +1% P/S) was added. After centrifugation at 1000 rpm for 5 min, the supernatant was discarded, and cell precipitation was resuspended in 5 mL complete medium and transferred to a T75 culture flask. […] The uptake assay test could be carried out after cell culture adherent to the well in the 96-well plate. Then, the cells were washed with 200 µL/well of pre-warmed Cl^- free HBSS buffer, and all buffer was removed at the last washing. 50 µL/well of Cl^- free HBSS Buffer containing Uric acid [8-^14C] (2.5 μCi/mL) and samples were added to the cells, and incubated for 8 min. Then, the cells were washed three times with Cl^- free HBSS Buffer and all buffer was removed at the last washing. 50 µL/well of lysis buffer (100 mM NaOH) was added to the lysate cells and stirred at 900 rpm for 5 min. 150 µL/well MicroScint™-40 cocktail was added and agitated at 900 rpm for 5 min. Finally, the 96-plate was counted in a MicroBeta2 (PerkinElmer). The data were analyzed and IC50 values was calculated with GraphPad Prism 6 software.

`O=C(O)c1cccc(-c2ccccc2-c2nc(-c3ccncc3)no2)c1` [Compound B28] had a melting point of 288 to 289 °C. Further, the inhibition at 10 µM on human URAT1 is 29%.
The molecule `O=C(O)c1ccccc1-c1ccccc1C(=O)N1CCCc2ccc(Cl)cc21` [Compound A9] gave a melting point of 233 to 234 °C. At human URAT1, this molecule came in with an IC50 of 2200 nM and an inhibition at 10 µM of 85%.
The corresponding values for `O=C(O)c1ccccc1-c1ccccc1-c1nc(-c2ccnc(Cl)c2)no1` [Compound B16] are 145 to 147 °C, 270 nM and 97%.
Regarding `O=C(O)c1ccccc1-c1ccccc1-c1nc(-c2ccncc2Cl)no1` [Compound B21], at human URAT1, the concentration for half-maximal inhibition (IC50) is 170 nM and testing at 10 µM gave an inhibition of 98%.
For the molecule `O=C(O)c1ccccc1-c1ccccc1-c1nc(-c2ccc3ncccc3c2)no1` [Compound B24], the melting point was in the range of 264 to 266 °C. In addition, at human URAT1, the inhibition at 10 µM was 67%.
`O=C(O)c1ccccc1-c1ccccc1C(=O)N1CCc2ccccc21` [Compound A4] came in with a melting point of 195 to 196 °C. At human URAT1, the IC50 came out at 4700 nM and 10 µM produced 77% inhibition.
Consider `O=C(O)c1ccccc1-c1ccc(C(=O)N2CCCc3ccccc32)cc1` [Compound A20], for which the melting point was in the range of 165 to 167 °C. Moreover, the inhibition at 10 µM against human URAT1 was under 10%.
`O=C(O)c1ccccc1-c1ccccc1-c1nc(-c2ccncn2)no1` [Compound B11]: the melting point lay in the range of 167 to 169 °C. Testing at 10 µM against human URAT1 gave an inhibition of 30%.
Regarding `O=C(O)c1ccccc1-c1ccccc1-c1nc(-c2ccnc3ccccc23)no1` [Compound B22], the melting point was in the range of 258 to 259 °C. For the same molecule, on human URAT1, inhibition was half-maximal at 1100 nM (IC50) and testing at 10 µM gave an inhibition of 89%.
`O=C(O)c1ccccc1-c1ccccc1C(=O)N1CCCCc2ccccc21` [Compound A5] registered a melting point of 215 to 217 °C. The molecule further returned an inhibition at 10 µM on human URAT1 of 72%.
Consider `O=C(O)CCNC(=O)c1ccccc1-c1ccccc1-c1nc(-c2ccncc2Cl)no1` [Compound B26], for which the melting point is 240 to 242 °C. The molecule further displayed an inhibition at 10 µM against human URAT1 of 35%.
The corresponding values for `O=C(O)c1ccccc1-c1ccccc1-c1nc(-c2ccsc2)no1` [Compound B10] are 146 to 148 °C and 69%.
Take `O=C(O)c1ccccc1-c1ccccc1-c1nc(-c2ccc(Br)cc2)no1` [Compound B4]: the melting point lay in the range of 148 to 150 °C. Moreover, 10 µM produced 61% inhibition on human URAT1.
For the molecule `O=C(NS(=O)(=O)c1ccc(Br)cc1)c1ccccc1-c1ccccc1-c1nc(-c2ccncc2Cl)no1` [Compound B27], the melting point lay within 188 to 190 °C. Further, at human URAT1, the IC50 turned out to be 1300 nM and the inhibition at 10 µM was found to be 96%.
Consider `O=C(O)c1ccccc1-c1ccccc1-c1nc(-c2ccc(Cl)cc2)no1` [Compound B3], for which the melting point is 154 to 156 °C. The same molecule showed an inhibition at 10 µM at human URAT1 of 55%.
The corresponding values for `O=C(O)c1ccccc1-c1ccccc1C(=O)N1CCSc2ccccc21` [Compound A3] are 193 to 195 °C and 78%.
For `O=C(O)c1ccccc1-c1ccccc1-c1nc(-c2cccs2)no1` [Compound B9], in that order: 140 to 142 °C and 68%.
`O=C(O)c1ccccc1-c1ccccc1C(=O)N1CCCc2ccc(-c3ccc(F)cc3)cc21` [Compound A12] returned a melting point of 245 to 246 °C. This molecule also came in with an inhibition at 10 µM on human URAT1 of 29%.
For `O=C(O)c1ccccc1-c1ccccc1-c1nc(-c2ccccn2)no1` [Compound B12], in that order: 190 to 193 °C and 27%.
Turning to `COc1cc(-c2noc(-c3ccccc3-c3ccccc3C(=O)O)n2)ccn1` [Compound B19], the melting point is 154 to 156 °C. Further, at human URAT1, the IC50 was found to be 420 nM and the inhibition at 10 µM was determined as 96%.
`O=C(O)c1ccccc1-c1ccccc1-c1nc(-c2ccco2)no1` [Compound B8] displayed a melting point of 171 to 175 °C. In addition, the inhibition at 10 µM on human URAT1 was 56%.
Molecule `COc1ccc(-c2noc(-c3ccccc3-c3ccccc3C(=O)O)n2)c2ccccc12` [Compound B25] came in with a melting point of 169 to 171 °C. Moreover, the inhibition at 10 µM at human URAT1 stood at 42%.
For `COc1ccc(-c2noc(-c3ccccc3-c3ccccc3C(=O)O)n2)cc1` [Compound B5], in that order: 154 to 157 °C and 68%.
As to `O=C(O)c1ccccc1-c1ccccc1-c1nc(-c2ccncc2)no1` [Compound B14], the melting point was 188 to 191 °C. At human URAT1, this molecule returned a half-maximal inhibitory concentration (IC50) of 1800 nM and an inhibition at 10 µM of 88%.
At human URAT1, `O=C(O)c1ccccc1-c1ccccc1C(=O)N1CCCc2ccccc21` [Compound A1] displayed an IC50 of 930 nM and an inhibition at 10 µM of 89%.
In turn, `O=C(O)c1ccccc1-c1ccccc1C(=O)Nc1ccnc2ccccc12` [Compound A19] registered a melting point of 176 to 178 °C. The molecule also returned an inhibition at 10 µM against human URAT1 of 24%.
The corresponding values for `O=C(O)c1ccccc1-c1ccccc1C(=O)NCc1ccncc1` [Compound A17] are 118 to 120 °C and under 10%.
`O=C(O)c1ccccc1-c1ccccc1-c1nc(-c2ccc(F)cc2)no1` [Compound B1] registered a melting point of 150 to 153 °C. On human URAT1, this molecule gave an inhibition at 10 µM of 56%.
Turning to `O=C(O)c1ccccc1-c1ccccc1C(=O)N1CCCc2ccc(-c3ccncc3)cc21` [Compound A13], the melting point was 266 to 268 °C. For the same molecule, at human URAT1, the half-maximal inhibitory concentration (IC50) came out at 1500 nM and the inhibition at 10 µM came to 86%.
The corresponding values for `O=C(O)c1ccccc1-c1ccccc1-c1nc(-c2ccnc(Br)c2)no1` [Compound B15] are 165 to 168 °C, 250 nM and 97%.
`O=C(O)c1ccccc1-c1ccccc1C(=O)Nc1ccncc1` [Compound A18] yielded a melting point of 190 to 191 °C. Also, the inhibition at 10 µM at human URAT1 came to 11%.
Consider `Cc1ccc2c(c1)CCCN2C(=O)c1ccccc1-c1ccccc1C(=O)O` [Compound A11], for which the melting point was 220 to 222 °C. Also, at human URAT1, half-maximal inhibition (IC50) was put at 2100 nM and the inhibition at 10 µM was found to be 91%.
For `O=C(O)c1ccccc1-c1ccccc1C(=O)N1CCOc2ccccc21` [Compound A2], in that order: 174 to 176 °C, 3900 nM and 75%.
For `COc1ccc2c(c1)CCCN2C(=O)c1ccccc1-c1ccccc1C(=O)O` [Compound A10], in that order: 198 to 200 °C, 1800 nM and 88%.
On to `O=C(O)c1ccccc1-c1ccccc1-c1nc(-c2cccc(Br)c2)no1` [Compound B7], for which the melting point lay within 119 to 121 °C. For the same molecule, at 10 µM the inhibition on human URAT1 was 44%.
As for `COc1cccc(-c2ccc3c(c2)N(C(=O)c2ccccc2-c2ccccc2C(=O)O)CCC3)c1` [Compound A14], the melting point lay within 177 to 179 °C. This molecule also registered an inhibition at 10 µM on human URAT1 of 58%.
For `O=C(O)c1ccccc1-c1ccccc1C(=O)N1CCc2ccccc2C1` [Compound A15], in that order: 171 to 173 °C and 25%.
